The record followed here is US9175266B2, “Enhancement of natural killer (NK) cell proliferation and activity” (Gamida Cell Ltd., priority 2012, dated 2015).

In assay [1] the test system is human peripheral blood NK cells. Kind of assay: Ex-vivo expansion of T-cell depleted peripheral blood NK cells in culture with cytokines. In kind it is cell-based. As to the method: For depletion procedure, total nuclear cells from umbilical cord blood (CB), bone marrow (BM) or peripheral blood (PB) cells were layered on a Ficoll-Hypaque gradient (1.077 g/mL; Sigma), and centrifuged at 800×g for 30 minutes for separation of the mononuclear cells. The cells in the interface layer were collected and washed three times in phosphate-buffered saline (PBS) (Biological Industries, Israel) containing 0.5% HSA. Optionally, cells are not separated on the Ficoll-Hypaque gradient but washed three times in phosphate-buffered saline (PBS) (Biological Industries) containing 0.5% HSA (“total mononuclear fraction”). CD3 cells were depleted using the CD3 cell isolation kit (Miltenyi Biotec Bergisch, Gladbach, Germany) and the entire CD3 negative cell fraction was cultured. […] After negative depletion the cells were counted and characterized by FACS analysis. […] To estimate number of cells in culture, cell samples were counted following staining with trypan blue. […] In order to calculate the number of NK cells on day 0, the total number of cells seeded on day 0 was multiplied by the percent of CD56+/CD3− cells measured by the FACS on day 0. […] In order to determine the number of NK cells in culture, the total number of cells in culture was multiplied by the percent of CD56+/CD3− cells measured with the FACS on days 14 or 21. […]

In another assay the test system is CD3+CD56− cells. As to the kind of experiment: T-cell fraction (CD3+CD56-) in cultures of T-cell depleted peripheral blood NK cells, by FACS. In kind it is cell-based, human. The settings on record: 21 day cultures; SR1 10 to 1000 nM vs cytokines only (SR1 0); FIG. 2. As for the experimental part: For depletion procedure, total nuclear cells from umbilical cord blood (CB), bone marrow (BM) or peripheral blood (PB) cells were layered on a Ficoll-Hypaque gradient (1.077 g/mL; Sigma), and centrifuged at 800×g for 30 minutes for separation of the mononuclear cells. The cells in the interface layer were collected and washed three times in phosphate-buffered saline (PBS) (Biological Industries, Israel) containing 0.5% HSA. Optionally, cells are not separated on the Ficoll-Hypaque gradient but washed three times in phosphate-buffered saline (PBS) (Biological Industries) containing 0.5% HSA (“total mononuclear fraction”). CD3 cells were depleted using the CD3 cell isolation kit (Miltenyi Biotec Bergisch, Gladbach, Germany) and the entire CD3 negative cell fraction was cultured. […] After negative depletion the cells were counted and characterized by FACS analysis. […] To estimate number of cells in culture, cell samples were counted following staining with trypan blue. […] The cells were then washed in the above buffer and analyzed using a FACScalibur® flow cytometer (Becton Dickinson, San Jose, Calif., USA). […] Emission of 10^4 cells was measured using logarithmic amplification, and analyzed using the CellQuest software (Becton Dickinson). Cells stained with FITC, PE and APC-conjugated isotype control antibodies were used to determine background fluorescence.

A further assay relates to CD62L. Kind of assay: CD62L expression on NK cell surface, by FACS. The following applies: PB derived NK cells; SR1 10-1000 nM, 14 and 21 days, vs cytokines only; FIG. 3. The format is cell-based, human. From the text:
(§1) For FACS analysis cells were stained with the following fluorescent antibodies: CD15 FITC, Cat. No. 332778, CD14 FITC, Cat. No. 345784, CD3 APC, Cat. No. 345767, all from Becton Dickinson (San Jose, Calif., USA), CD62L PE, Cat. No. 304806 from BioLegend (San Diego, Calif., USA), CD56 FITC, Cat. No. 11-0569-42 from eBioscience (San Diego, Calif., USA) and CD45 PE, Cat. No. R7807 from Dako (Glostrup, Denmark) and anti-CD200R and anti-PD-1 fluorescent antibodies. The cells were washed with a PBS solution containing 1% BSA, and stained (at 4° C. for 30 min) with fluorescein isothiocyanate (FITC)- or phycoerythrin (PE)-conjugated antibodies or allophycocyanin (APC). The cells were then washed in the above buffer and analyzed using a FACScalibur® flow cytometer (Becton Dickinson, San Jose, Calif., USA). The cells were passed at a rate of up to 1000 cells/second, using a 488 nm or 661 nm argon laser beam as the light source for excitation. Emission of 10^4 cells was measured using logarithmic amplification, and analyzed using the CellQuest software (Becton Dickinson). Cells stained with FITC, PE and APC-conjugated isotype control antibodies were used to determine background fluorescence. […] NK cells were stained with specific antibodies for the specified surface markers (CD62L, CD200R, PD-1) after 3 weeks incubation with SR1, and then monitored by FACS.

In a further assay the test system is CD200R. Kind of assay: CD200R expression on NK cell surface, by FACS. In kind it is cell-based, human. The settings on record: PB derived NK cells; SR1 10-1000 nM, 14 and 21 days, vs cytokines only; FIG. 4A.
Excerpt: as §1
For orientation: A flow cytometer gives signals particle by particle.

In the next assay the test system is PD-1. Kind of assay: PD-1 expression on NK cell surface, by FACS. The format is cell-based, human. The settings on record: PB derived NK cells; SR1 10-1000 nM, 14 and 21 days, vs cytokines only; FIG. 4B.
Excerpt: as §1

Another assay concerns human NK cells. As to the kind of experiment: In-vivo homing and engraftment of cultured, CFSE-stained human NK cells in spleen of irradiated NSG mice. Further details: species or system NOD.Cg-Prkdcscid Il2rgtm1Wjl/SzJ (NSG) mice. The settings on record: 15×10^6 NK cells cultured 2-3 weeks with SR1 vs without; irradiated (350 Rad) NSG mice; 4 days post infusion; FIG. 5. As for the experimental part: NK cells were expanded with or without 1000 nM SR1, as described above. After 2 weeks in culture, cells were stained with CFSE and similar numbers (15×10^6) of cells were infused into irradiated (350 Rad) NSG mice. Mice were sacrificed 4-days post infusion. Spleens were analyzed for the homing and engraftment of human NK cells based on the CFSE fluorescence, in order to distinguish them from endogenous cells. Engraftment is expressed as the % of cells staining with CFSE. Irradiated (350 Rad) NOD.Cg-Prkdcscid Il2rgtm1Wjl/SzJ (NSG) mice received 15×10^6 cells from human peripheral blood NK (T-cell depleted) cultures maintained for up to 3 weeks with SR1 or without (SR1 0) SR1. Prior to infusion NK cells were stained with CFSE. Upon sacrifice of the mice 4 days post infusion, samples of spleen were evaluated by FACS for the percent of cells that are stained with CFSE.

Each structure is given as a SMILES string. “Also recorded” adds a separate entry of the source.

Take `CC(C)n1cnc2c(NCCc3ccc(O)cc3)nc(-c3csc4ccccc34)nc21` [SR1, 4-(2-(2-(benzo[b]thiophen-3-yl)-9-isopropyl-9H-purin-6-ylamino)ethyl)phenol]: the “cells in culture that were NK (CD56+CD3-) cells” value in assay [1] (CD3+ or CD3+/CD19+ depleted peripheral blood mononuclear cells (2-10% NK at seeding), 2-3 weeks in culture with SR1) was “more than 90%”. In addition, in assay [1] (day 21, SR1 10-1000 nM with cytokines (IL-2, IL-15) vs cytokines only (SR1 0), FIG. 1), the “NK expansion (fold increase relative to day 0)” value is “greatly increased expansion; also recorded: significantly higher”. Moreover, in the assay with CD3+CD56− cells, the “percentages of CD3+CD56− cells (T-cell fraction)” value is recorded as “less prominent than in control; also recorded: lower than in control cultures”. The “expression of CD62L” value in the assay on CD62L is reported as “dramatically enhanced expression; also recorded: strongly enhanced expression”. Further, the “expression of CD200R” value in the assay with CD200R is recorded as “reduced expression”. Also, in the assay on PD-1, the “expression of PD-1” value is listed as “reduced expression”. Moreover, the “homing and engraftment into spleen (% of cells staining with CFSE)” value in the assay with human NK cells was “significantly higher; also recorded: increased localization and engraftment”.
